Data reported in patent US7087623B2, “Thiazole and other heterocyclic ligands for mammalian dopamine, muscarinic and serotonin receptors and transporters, and methods of use thereof” (Sepracor Inc., priority 2001, dated 2006).
pIC50: −log10 of the molar value. Where two headings read alike, the source gives them in different places.

How the values were obtained:
[1] = target: T1, human serotonin 5-HT2A receptor (Homo sapiens, UniProt P28223); test: Radioligand binding assay, human 5-HT2A receptors ([3H]Ketanserin); details: human 5-HT2a, Example 16 table
T1 construct: expressed in transfected cells; host or cells: CHO-K1
Experimental: (§1) The human 5-HT2a and 5-HT2b screens were conducted according to Bonhaus, D. W. et al. Br. J. Pharmacol. 1995, 115, 622. The human 5-HT2c screen was conducted according to Wolf, W. A. et al. J. Neurochem. 1997, 69, 1449. The human 5-HT6 screen was conducted according to Monsma, F. J. et al. Mol. Pharmacol. 1993, 43, 320.
CHO-K1 cells stably transfected with a plasmid encoding the human serotonin 5-HT2A receptor were used to prepare membranes in modified Tris-HCl pH 7.7 buffer using standard techniques. […] Non-specific binding was estimated in the presence of 1 μM mianserin. […] See Bonhaus, D. W. et al. “The pharmacology and distribution of human 5-hydroxytryptamine2B (5-HT2B) receptor gene products: comparison with 5-HT2A and 5-HT2C receptors” Brit. J. Pharmacol. 115: 622–628, 1995; and Saucier, C and Albert, P. R. “Identification of an endogenous 5-hydroxytryptamine2A receptor in NIH-3T3 cells: agonist-induced down-regulation involves decreases in receptor RNA and number” J. Neurochem. 68: 1998–2011, 1997.
(§2) The human 5-HT2a and 5-HT2b screens were conducted according to Bonhaus, D. W. et al. Br. J. Pharmacol. 1995, 115, 622. The human […], W. A. et al. J. Neurochem. 1997, 69, 1449. The human 5-HT6 screen was conducted according to Monsama, F. J. et al. Mol. Pharmacol. 1993, 43, 320. The assay to human D3 receptors was conducted according to Sokoloff, P. et al. Nature 1990, 347;146. The human dopamine transporter assay was conducted according to Gu, H. et. al. J. Biol. Chem. 1994, 269 (10);7124; and Giros, B. et al. Trends. Pharmacol. Sci. 1993, 14: 43. The human muscarinic M1–M4 screens were conducted according to Buckley N. J. et al. Mol. Pharmacol. 1989, 35:469.

[2] = target: T2, human serotonin 5-HT2B receptor (Homo sapiens, UniProt P41595); test: Radioligand binding assay, human 5-HT2B receptors ([3H]LSD); details: for IC50: human 5-HT2b, Example 16 table, read-out: IC50 (nM) 5-HT2b
T2 construct: expressed in transfected cells; host or cells: CHO-K1
Experimental: This assay measures binding of [^3H]LSD to human serotonin 5-HT2B receptors. CHO-K1 cells stably transfected with a plasmid encoding the human serotonin 5-HT2B receptor were used to prepare membranes in modified Tris-HCl pH 7.4 buffer using standard techniques. […] Non-specific binding was estimated in the presence of 10 μM serotonin. Membranes were filtered and washed 3 times and the filters were counted to determine [^3H]LSD specifically bound. See Bonhaus, D. W. et al. “The pharmacology and distribution of human 5-hydroxytryptamine2B (5-HT2B) receptor gene products: comparison with 5-HT2A and 5-HT2C receptors” Brit.
The human 5-HT2b screen was conducted according to Wolf, W. A. et al. J. Neurochem.

[3] = target: T3, human serotonin 5-HT2C receptor (Homo sapiens, UniProt P28335); test: Radioligand binding assay, human 5-HT2C receptors ([3H]Mesulergine); details: human 5-HT2c, Example 16 table
T3 construct: expressed in transfected cells; host or cells: CHO-K1
T3 sequence (P28335 33-458): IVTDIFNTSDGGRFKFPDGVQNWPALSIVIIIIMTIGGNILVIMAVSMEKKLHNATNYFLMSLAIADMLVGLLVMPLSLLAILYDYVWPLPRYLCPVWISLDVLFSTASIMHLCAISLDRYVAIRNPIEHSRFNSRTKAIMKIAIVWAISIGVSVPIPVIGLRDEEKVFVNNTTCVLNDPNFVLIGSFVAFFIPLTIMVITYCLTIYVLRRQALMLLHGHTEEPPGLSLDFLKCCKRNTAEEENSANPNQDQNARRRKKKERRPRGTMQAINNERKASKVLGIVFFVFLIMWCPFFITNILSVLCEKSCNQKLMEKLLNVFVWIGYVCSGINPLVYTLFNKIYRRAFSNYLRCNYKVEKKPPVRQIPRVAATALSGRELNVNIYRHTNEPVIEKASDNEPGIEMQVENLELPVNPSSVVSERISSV
Experimental: as §1
CHO-K1 cells stably transfected with a plasmid encoding the human serotonin 5-HT2C receptor were used to prepare membranes in modified Tris-HCl pH 7.7 buffer using standard techniques. […] Non-specific binding was estimated in the presence of 1 μM mianserin. […] See Wolf, W. A. and Schutz, J. S. “The serotonin 5-HT2C receptor is a prominent serotonin receptor in basal ganglia: evidence from functional studies on serotonin-mediated phosphoinositide hydrolysis” J. Neurochem. 69: 1449–1458, 1997.
as §2

[4] = target: T4, human serotonin 5-HT6 receptor (Homo sapiens, UniProt P50406); test: Radioligand binding assay, human 5-HT6 receptors ([3H]LSD)
T4 construct: expressed in transfected cells; host or cells: HeLa/E6-7
Experimental: as §1
This assay measures binding of [^3H]LSD (lysergic acid diethylamide) to human serotonin 5-HT6 receptors. HeLa/E6–7 cells stably transfected with a plasmid encoding the human serotonin 5-HT6 receptor were used to prepare membranes in modified Tris-HCl pH 7.4 buffer using standard techniques. A 30 μg aliquot of membrane was incubated with 1.5 nM [^3H]LSD for 120 minutes at 37° C. Non-specific binding was estimated in the presence of 5 μM 5-HT. Membranes were filtered and washed 3 times and the filters were counted to determine [^3H]LSD specifically bound. See Monsma, Jr., F. J. et al. “Cloning and expression of a novel serotonin receptor with high affinity for tricyclic psychotropic drugs” Mol. Pharmacol. 43: 320–327, 1993.
as §2

[5] = target: T5, human dopamine D3 receptor (Homo sapiens, UniProt P35462); test: Radioligand binding assay, human dopamine D3 receptors ([3H]Spiperone)
T5 construct: expressed in transfected cells; host or cells: CHO
Experimental: The assay for binding to human D3 receptors was conducted according to Sokoloff, P. et al. Nature 1990, 347, 146.
CHO cells stably transfected with a plasmid encoding the human dopamine D3 receptor were used to prepare membranes in modified Tris-HCl pH 7.4 buffer using standard techniques. […] Non-specific binding was estimated in the presence of 25 μM S-(−)-sulpiride. […] See Sokoloff, P. et al. “Molecular cloning and characterization of a novel dopamine receptor (D3) as a target for neuroleptics” Nature 347: 146–151, 1990.
as §2

[6] = target: T6, human dopamine transporter (Homo sapiens, UniProt Q01959); test: Binding to human dopamine transporter ([125I]RTI-55); details: for IC50: human, read-out: IC50 (nM) DAT
T6 construct: expressed in transfected cells; host or cells: CHO-K1
Experimental: CHO-K1 cell membranes stably transfected with a plasmid encoding the human dopamine transporter were prepared in modified Tris-HCl pH 7.4 buffer using standard techniques. […] Non-specific binding was estimated in the presence of 10 μM nomifensine. […] Trends. […]

ICR male or female mice = test: Acute toxicity evaluation in mice, intravenous; assay type: in vivo, mouse; details: intravenous doses of 5 and 10 mg/kg, deaths recorded at 3, 24, 48 and 72 hours
Experimental: Compound 20 was formulated in 5% dextrose in water (w/v)/PEG 400 (4:1 v/v) to a maximum concentration of 8 mg/mL. The solution was passed through a 0.8/0.2 micron filter before administration.
ICR male or female mice weighing 20–22 g were maintained in a hygienic environment under controlled temperature (22–24° C.) and humidity (60–80%) with 12-hour light/dark cycles for at least one week. Free access to standard lab chow for mice and tap water was granted.
Three mice/dose (5 and 10 mg/kg) were intravenously administered test compound. Animal deaths were recorded at 3, 24, 48 and 72 hours after treatment.

[7] = human 5-HT6, Example 16 table, read-out: IC50 (nM) 5-HT6
[8] = Example 20 table, read-out: IC50 (nM) Against Human D3 Receptors
[9] = IC50 (nM) 5-HT6, human 5-HT6, Example 16 table
[10] = IC50 (nM) Against Human D3 Receptors, Example 20 table

T2 sequence (P41595 whole entry): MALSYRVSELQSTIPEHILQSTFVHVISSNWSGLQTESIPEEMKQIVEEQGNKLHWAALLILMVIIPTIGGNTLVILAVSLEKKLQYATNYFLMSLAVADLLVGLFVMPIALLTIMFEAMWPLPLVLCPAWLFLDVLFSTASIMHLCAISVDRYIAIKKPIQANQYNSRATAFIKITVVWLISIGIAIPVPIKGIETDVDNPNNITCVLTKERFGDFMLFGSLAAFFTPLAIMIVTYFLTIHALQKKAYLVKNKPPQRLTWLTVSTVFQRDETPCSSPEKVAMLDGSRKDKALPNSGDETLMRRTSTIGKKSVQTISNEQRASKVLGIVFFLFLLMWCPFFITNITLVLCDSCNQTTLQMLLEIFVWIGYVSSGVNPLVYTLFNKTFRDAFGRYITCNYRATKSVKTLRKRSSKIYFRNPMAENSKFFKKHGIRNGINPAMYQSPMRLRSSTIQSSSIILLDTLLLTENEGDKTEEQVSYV
T4 sequence (P50406 whole entry): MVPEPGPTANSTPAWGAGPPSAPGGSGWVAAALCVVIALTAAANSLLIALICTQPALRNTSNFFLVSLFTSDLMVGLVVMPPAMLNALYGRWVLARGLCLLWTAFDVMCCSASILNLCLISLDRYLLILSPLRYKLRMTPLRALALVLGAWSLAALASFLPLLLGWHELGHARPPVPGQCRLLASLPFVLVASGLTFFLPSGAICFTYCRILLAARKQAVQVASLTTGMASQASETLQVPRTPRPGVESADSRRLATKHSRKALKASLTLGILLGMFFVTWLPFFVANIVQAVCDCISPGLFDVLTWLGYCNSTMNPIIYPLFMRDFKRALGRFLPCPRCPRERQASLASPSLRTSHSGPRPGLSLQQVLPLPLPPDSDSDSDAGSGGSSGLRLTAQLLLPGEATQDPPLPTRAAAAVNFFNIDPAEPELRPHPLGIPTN
T5 sequence (P35462 whole entry): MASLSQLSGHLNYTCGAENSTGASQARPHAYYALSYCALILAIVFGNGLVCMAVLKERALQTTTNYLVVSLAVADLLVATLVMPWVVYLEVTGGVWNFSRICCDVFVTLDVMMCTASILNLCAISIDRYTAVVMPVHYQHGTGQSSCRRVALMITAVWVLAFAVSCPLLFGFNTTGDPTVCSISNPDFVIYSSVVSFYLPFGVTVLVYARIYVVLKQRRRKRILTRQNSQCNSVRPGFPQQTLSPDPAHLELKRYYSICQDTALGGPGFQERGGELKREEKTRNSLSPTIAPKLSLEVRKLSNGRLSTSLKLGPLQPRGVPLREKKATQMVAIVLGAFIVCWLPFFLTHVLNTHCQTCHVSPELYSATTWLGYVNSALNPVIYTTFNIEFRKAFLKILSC
T6 sequence (Q01959 whole entry): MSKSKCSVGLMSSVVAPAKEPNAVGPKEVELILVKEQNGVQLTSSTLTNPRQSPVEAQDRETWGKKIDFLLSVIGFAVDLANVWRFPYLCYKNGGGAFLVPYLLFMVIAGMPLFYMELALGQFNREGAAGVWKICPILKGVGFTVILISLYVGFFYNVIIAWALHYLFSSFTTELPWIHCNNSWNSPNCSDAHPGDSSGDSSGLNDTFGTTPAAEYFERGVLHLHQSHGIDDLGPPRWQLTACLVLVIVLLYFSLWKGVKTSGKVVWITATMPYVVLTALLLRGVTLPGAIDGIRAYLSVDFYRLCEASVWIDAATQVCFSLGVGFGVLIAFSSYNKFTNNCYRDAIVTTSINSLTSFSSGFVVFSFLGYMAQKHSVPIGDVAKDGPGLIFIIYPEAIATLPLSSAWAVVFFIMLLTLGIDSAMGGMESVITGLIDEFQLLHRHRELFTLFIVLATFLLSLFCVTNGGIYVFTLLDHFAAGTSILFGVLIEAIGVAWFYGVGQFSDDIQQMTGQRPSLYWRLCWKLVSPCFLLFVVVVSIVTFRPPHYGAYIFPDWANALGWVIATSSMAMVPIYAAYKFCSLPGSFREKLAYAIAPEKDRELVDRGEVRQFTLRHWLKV
T1 sequence (P28223 whole entry): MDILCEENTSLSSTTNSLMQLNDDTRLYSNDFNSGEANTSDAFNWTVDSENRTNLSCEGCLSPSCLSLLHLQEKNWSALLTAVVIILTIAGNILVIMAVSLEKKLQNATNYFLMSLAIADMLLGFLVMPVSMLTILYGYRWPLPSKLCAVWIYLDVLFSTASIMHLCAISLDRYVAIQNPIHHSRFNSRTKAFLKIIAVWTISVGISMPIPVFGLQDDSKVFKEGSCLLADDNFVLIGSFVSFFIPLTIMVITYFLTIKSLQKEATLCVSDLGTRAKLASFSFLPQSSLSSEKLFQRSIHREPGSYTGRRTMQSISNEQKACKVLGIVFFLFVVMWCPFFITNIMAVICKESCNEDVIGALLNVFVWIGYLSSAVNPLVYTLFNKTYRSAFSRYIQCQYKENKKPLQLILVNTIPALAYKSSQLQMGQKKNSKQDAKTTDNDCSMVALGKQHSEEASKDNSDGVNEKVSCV

Compound | IC50 ([1]; read-out: IC50 (nM) 5-HT2a) | IC50 [2] | IC50 ([3]; read-out: IC50 (nM) 5-HT2c) | IC50 [4, 7] | IC50 [5, 8] | IC50 ([6]; Example 101 table) | also measured
CN1CCN(c2nc(C3(c4ccc(Cl)cc4)CCCC3)cs2)CC1 [Compound 85] | > 1000 nM | < 1000 nM | < 1000 nM | < 100 nM | < 1000 nM | < 100 nM | –
CN1CCC(c2nc(C3(c4ccc(Cl)cc4)CCCCC3)cs2)CC1 [Compound 35] | < 1000 nM | < 1000 nM | < 1000 nM | < 1000 nM | < 100 nM | < 100 nM | –
CN1CCN(c2nc(C3(c4ccc(Cl)cc4)CCC3)cs2)CC1 [Compound 27, 1-{4-[1-(4-chlorophenyl)cyclobutyl]thiazol-2-yl}-4-methylpiperazine] | < 1000 nM | < 1000 nM | < 1000 nM | < 1000 nM | < 1000 nM | < 500 nM | –
CN1CCCC1CCNc1nc(C2(c3ccc(Cl)cc3)CCC2)no1 (stereo not shown) [Compound 26, {3-[1-(4-Chlorophenyl)cyclobutyl]-[1,2,4]oxadiazol-5-yl}-[2-(1-methyl-pyrrolidin-2-yl)-ethyl]-amine] | – | – | – | – | – | – | IC50 ([1]; IC50 (nM) 5-HT2a): > 1000 nM; pIC50 [2]: < 6.00; IC50 ([3]; IC50 (nM) 5-HT2c): < 1000 nM; IC50 [4, 9]: > 1000 nM; IC50 [5, 10]: > 1000 nM; pIC50 [6]: > 6.00
Clc1ccc(C2(c3csc(NCCN4CCCCC4)n3)CCC2)cc1 [Compound 23, {4-[1-(4-chlorophenyl)-cyclobutyl]thiazol-2-yl}-(2-piperidin-1-yl-ethyl)amine] | < 1000 nM | < 1000 nM | < 100 nM | > 1000 nM | < 1000 nM | < 500 nM | –
CCN1CCCC1CNc1nc(C2(c3ccc(Cl)cc3)CCC2)cs1 (stereo not shown) [Compound 25, {4-[1-(4-chlorophenyl)cyclobutyl]thiazol-2-yl}-(1-ethylpyrrolidin-2-ylmethyl)amine] | < 1000 nM | < 1000 nM | < 1000 nM | < 1000 nM | < 1000 nM | > 1000 nM | –
Clc1ccc(C2(c3csc(NCCN4CCOCC4)n3)CCC2)cc1 [Compound 22, {4-[1-(4-chlorophenyl)-cyclobutyl]thiazol-2-yl}-(2-morpholin-4-yl-ethyl)amine] | > 1000 nM | > 1000 nM | > 1000 nM | > 1000 nM | > 1000 nM | > 1000 nM | –
CN1CCC(N(C)c2nc(C3(c4ccc(Cl)cc4)CCCC3)cs2)C1 (stereo not shown) [Compound 116] | – | – | – | – | – | – | IC50 ([4]; human, Example 100 table, read-out: IC50 (nM) 5-HT6): < 10 nM; IC50 ([5]; human, Example 100 table, read-out: IC50 (nM) D3): > 1000 nM; IC50 ([6]; Example 100 table): < 1000 nM
CN1CCN(c2nc(C3(c4ccc(Cl)cc4)CCOCC3)cs2)CC1 [Compound 29, 1-{4-[4-(4-chlorophenyl)tetrahydropyran-4-yl]-thiazol-2-yl}-4-methylpiperazine] | – | – | – | – | – | – | IC50 ([1]; IC50 (nM) 5-HT2a): > 1000 nM; pIC50 [2]: < 6.00; IC50 ([3]; IC50 (nM) 5-HT2c): < 1000 nM; IC50 [4, 9]: < 100 nM; IC50 [5, 10]: < 1000 nM; pIC50 [6]: > 6.00
CCN(CC)CCCNc1nc(C2(c3ccc(Cl)cc3)CCC2)cs1.O=C(O)CC(O)(CC(=O)O)C(=O)O [Compound 20, N′-{4-[1-(4-chlorophenyl)cyclobutyl]thiazol-2-yl}-N,N-diethylpropane-1,3-diamine citrate salt] | – | – | – | – | – | – | Animal deaths (ICR male or female mice): no deaths were observed
COc1ccc(C2(c3csc(N4CCN(C)CC4)n3)CCOCC2)cc1OC [Compound 74] | > 1000 nM | > 1000 nM | > 1000 nM | > 1000 nM | > 1000 nM | > 1000 nM | –
CN1CCN(c2nc(CCc3ccc(Cl)cc3)cs2)CC1 [Compound 32] | < 100 nM | < 1000 nM | < 100 nM | > 1000 nM | > 1000 nM | > 1000 nM | –
CN1CCN(c2nc(C3(c4ccc(Cl)cc4)CCC3)no2)CC1 [Compound 28, 1-{3-[1-(4-chlorophenyl)cyclobutyl]-[1,2,4]oxadiazol-5-yl}-4-methylpiperazine] | > 1000 nM | > 1000 nM | > 1000 nM | > 1000 nM | > 1000 nM | > 1000 nM | –
CN1CCCC1CCNc1nc(C2(c3ccc(Cl)cc3)CCC2)cs1 (stereo not shown) [Compound 24, {4-[1-(4-chlorophenyl)-cyclobutyl]thiazol-2-yl}-[2-(1-methylpyrrolidin-2-yl)ethyl]amine] | < 100 nM | < 100 nM | < 10 nM | < 1000 nM | < 1000 nM | < 500 nM | –
